According to patent publication US20250288571A1 (Nested Therapeutics, Inc., priority 2024, published 2025):

Key:
HCT116 cells = assay: HCT116 Cell Titer Glow assay (CTG); details: Homo sapiens, HCT-116, 72 h; for IC50: read-out: CTG IC50 (nM) Cell Line: HCT116.20; for viability at 1000 µM: read-out: CTG % cell viability 1000 uM HCT116.20, HCT116 cells, 72 hours, 1000 uM, percent cells remaining after treatment
pERK Thr202/Tyr204 [1] = assay: pERK HTRF detection of pERK Thr202/Tyr204, A549 cells; format: cell-based; details: Homo sapiens, 2 h compound
Protocol: (§1) pERK: Detection of pERK Thr202/Tyr204
(§2) A549 cultured in F-12K/10% FBS were seeded at 10000 cells/well, and HCT116 cultured in McCoy's 5A/10% FBS were seeded at 15000 cells/well cells into Corning 384-well plates, respectively. Cells were incubated overnight in a TC incubator. Compounds were serially diluted and added to cells for 2 h in a TC incubator. Cells were then lysed according to manufacture protocol (Cisbio CAT #: 64AERPEG). Cell lysate was mixed with phospho-ERK (Thr202/Tyr204) antibody solution at 5:1 (v:v). Lysate and antibody mixture were incubated overnight at room temperature. HTRF signal was read at two different wavelengths (665 nm and 620 nm) on a compatible HTRF reader.

pMEK [2] = assay: pMEK AlphaLISA (MEK1 pS218/222), A549 cells, EGF stimulated; format: cell-based; details: Homo sapiens, 2 h compound, EGF 30 ng/ml 15 min
Protocol: (§3) Determination of pMEK IC50s
(§4) A549 cells were cultured in F12K/10% FBS media (ATCC CAT #21127022) and were seeded at 10000 cells/well and HCT116 cells were cultured in McCoy's 5A/10% FBS media (Gibco Cat #30-2007) were seeded at 15000 cells/well in 384 microplates (Corning CAT #3765). Cells were incubated overnight in a TC incubator. Compounds were serially diluted and added to cells for 2 h in a TC incubator. At the end of the 2 h EGF (R&D Systems 236-EG-200) was added at a final EGF concentration of 30 ng/ml and incubated for 15 minutes at 37° C. in a TC incubator. AlphaLisa (Perkin Elmer) was performed according to manufacturer's instructions (Perkin Elmer CAT #ALPHA.SF ULTRA MEK1 PS218/222). The percent (%) inhibition at each concentration of compound is calculated based on and relative to the AlphaLISA signal in the HPE and ZPE control wells contained within each assay plate. The ZPE control wells contain cells and DMSO as 0% inhibition, and the HPE control wells only contain cells and control compound (Sellekchem Staurosporin CAT #S1421) as 100% inhibition.

pMEK [3] = assay: pMEK AlphaLISA (MEK1 pS218/222), HCT116 cells, EGF stimulated; format: cell-based; details: Homo sapiens, HCT-116, 2 h compound, EGF 30 ng/ml 15 min
Protocol: as §3, §4

IPC298 cells = assay: IPC298 Cell Titer Glow assay (CTG); details: Homo sapiens, IPC-298, 72 h; for IC50: read-out: CTG IC50 (nM) Cell Line: IPC298.2
pERK Thr202/Tyr204 [4] = assay: pERK HTRF detection of pERK Thr202/Tyr204, HCT116 cells; format: cell-based; details: Homo sapiens, HCT-116, 2 h compound
Protocol: as §1, §2

IC50 (HCT116 cells) [nM] | IC50 (pERK Thr202/Tyr204 [1]) [nM] | IC50 (pMEK [2]) [nM] | IC50 (pMEK [3]) [nM] | IC50 (pERK Thr202/Tyr204 [4]) [nM] | IC50 (pERK Thr202/Tyr204 [4]; numeric value) [nM] | SMILES | IC50 (IPC298 cells) [nM] | viability at 1000 µM (HCT116 cells) [%] | viability at 100 µM (IPC298 cells; read-out: CTG % cell viability 100 uM IPC298.2, IPC298 cells, 72 hours, 100 uM, percent cells remaining after treatment) [%]
< 10 | < 10 | < 10 | < 10 | < 10 |  | CNS(=O)(=O)Nc1nccc(Cc2cncc(Nc3ccc(Br)cc3F)c2C)c1F [Example 1, N-(4-bromo-2-fluorophenyl)-5-({3-fluoro-2-[(methylsulfamoyl)amino]pyridin-4-yl}methyl)-4-methylpyridin-3-amine] | < 10 |  | 
 | < 10 | 10 to 100 | 10 to 100 | < 10 |  | CC(=O)Nc1nccc(Cc2cncc(Nc3ccc(Br)cc3F)c2C)c1F [Example 3, N-[4-({5-[(4-bromo-2-fluorophenyl)amino]-4-methylpyridin-3-yl}methyl)-3-fluoropyridin-2-yl]acetamide] |  |  | 
 | 10 to 100 | 10 to 100 | 10 to 100 | 10 to 100 |  | COC(=O)Nc1nccc(Cc2cncc(Nc3ccc(Br)cc3F)c2C)c1F [Example 4, methyl N-[4-({5-[(4-bromo-2-fluorophenyl)amino]-4-methylpyridin-3-yl}methyl)-3-fluoropyridin-2-yl]carbamate] |  |  | 
10 to 100 | < 10 | < 10 | < 10 | < 10 |  | CNS(=O)(=O)Nc1ccc(Cc2cncc(Nc3ccc(Br)cc3F)c2C)cc1 [Example 5, N-(4-bromo-2-fluorophenyl)-4-methyl-5-({4-[(methylsulfamoyl)amino]phenyl}methyl)pyridin-3-amine] | < 10 |  | 
10 to 100 | < 10 | < 10 | < 10 | < 10 |  | CNS(=O)(=O)Nc1nccc(Cc2cncc(Nc3ccc(Cl)cc3F)c2C)c1F [Example 6, N-(4-chloro-2-fluorophenyl)-5-({3-fluoro-2-[(methylsulfamoyl)amino]pyridin-4-yl}methyl)-4-methylpyridin-3-amine] |  |  | 
 | < 10 | < 10 | 10 to 100 | < 10 |  | Cc1c(Cc2ccnc(S(C)(=O)=O)c2F)cncc1Nc1ccc(Br)cc1F [Example 9, N-(4-bromo-2-fluorophenyl)-5-[(3-fluoro-2-methanesulfonylpyridin-4-yl)methyl]-4-methylpyridin-3-amine] |  |  | 
< 10 | < 10 | < 10 | < 10 | < 10 |  | CCc1ccc(Nc2cncc(Cc3ccnc(NS(=O)(=O)NC)c3F)c2C)c(F)c1 [Example 10, N-(4-ethyl-2-fluorophenyl)-5-({3-fluoro-2-[(methylsulfamoyl)amino]pyridin-4-yl}methyl)-4-methylpyridin-3-amine] | < 10 |  | 
 | < 10 | 10 to 100 | < 10 | < 10 |  | CNS(=O)(=O)Nc1nccc(Cc2cncc(Nc3ccc(C#N)cc3F)c2C)c1F [Example 11, 3-fluoro-4-{[5-({3-fluoro-2-[(methylsulfamoyl)amino]pyridin-4-yl}methyl)-4-methylpyridin-3-yl]amino}benzonitrile] | 10 to 100 | 31.8 | 
 | < 10 | < 10 | < 10 | < 10 |  | CNC(=O)Nc1nccc(Cc2cncc(Nc3ccc(Br)cc3F)c2C)c1F [Example 12, 1-[4-({5-[(4-bromo-2-fluorophenyl)amino]-4-methylpyridin-3-yl}methyl)-3-fluoropyridin-2-yl]-3-methylurea] |  |  | 
< 10 |  | < 10 | < 10 |  | 0.241 | CNS(=O)(=O)Nc1nccc(Cc2cncc(Nc3ccc(Cl)cc3F)c2C(F)(F)F)c1F [Example 38, N-(4-chloro-2-fluorophenyl)-5-({3-fluoro-2-[(methylsulfamoyl)amino]pyridin-4-yl}methyl)-4-(trifluoromethyl)pyridin-3-amine] | < 10 |  | 
10 to 100 |  | < 10 | < 10 |  | 0.354 | CNS(=O)(=O)Nc1nccc(Cc2cncc(Nc3ccc(OC(F)(F)F)cc3F)c2C)c1F [Example 39] | < 10 |  | 
> 1000 |  | > 1000 | > 1000 |  | > 1000 | CNS(=O)(=O)Nc1nccc(Cc2cncc(Oc3ccc(Cl)cc3F)n2)c1F [Example 40, 4-[[6-(4-chloro-2-fluoro-phenoxy)pyrazin-2-yl]methyl]-3-fluoro-N-(methylsulfamoyl)pyridin-2-amine] | > 1000 | 101 | 95.2
100 to 500 |  | < 10 | < 10 |  | 2.32 | CNS(=O)(=O)Nc1nccc(Cc2cncc(Nc3nc4c(cc3F)OCCO4)c2C)c1F [Example 41, 7-fluoro-N-[5-[[3-fluoro-2-(methylsulfamoylamino)-4-pyridyl]methyl]-4-methyl-3-pyridyl]-2,3-dihydro-[1,4]dioxino[2,3-b]pyridin-6-amine] | 10 to 100 |  | 
100 to 500 |  | < 10 | < 10 |  | 0.791 | CNS(=O)(=O)Nc1nccc(Cc2cncc(Nc3cc4c(cc3F)OCCO4)c2C)c1F [Example 42, 3-fluoro-4-[[5-[(6-fluoro-2,3-dihydro-1,4-benzodioxin-7-yl)amino]-4-methyl-3-pyridyl]methyl]-N-(methylsulfamoyl)pyridin-2-amine] | 10 to 100 |  | 
